{"source": "patent US20230233545A1", "about": "“TREATMENT OF ATRIAL DYSFUNCTION” (MyoKardia, Inc., priority 2020, published 2023)", "key": {"[1]": {"test_system": "patients with stable HFrEF", "test": "Multiple-ascending dose trial, TTE left atrial parameters", "assay_type": "in vivo, human", "text": "This example describes a study to establish the effect on left atrial dimensions and function of single- and multiple-ascending oral doses of Compound I in ambulatory patients with stable heart failure with reduced ejection fraction (HFrEF). Key eligibility criteria included stable HFrEF of ischemic or nonischemic origin, treated with guideline-directed medical therapy (EF initial requirement during Screening was 20 to 45%, and was later changed by amendment to 15 to 35%). Subjects with active ischemia or severe or valvular heart disease were excluded.\nThe clinical trial enrolled patients who were 18-80 years of age with a clinical diagnosis of stable chronic heart failure with an LV ejection fraction (LVEF) on echocardiography of 45% or less (subsequently amended to ≤35%), treated with guideline-directed medical therapy, and with good quality echocardiogram images. […] Patients with current or recent AF were also excluded. Detailed inclusion and exclusion criteria are shown below.\nThis was a randomized, parallel-group, DB, placebo-controlled, adaptive design, sequential ascending (oral) multiple-dose study in stable patients with heart failure. Four MAD Cohorts (A, B, C, D) were enrolled (FIG. 7B). An SRC reviewed results from each cohort and determined the dose and confirmed initial sample size for the subsequent cohort. Additionally, the first 3 patients in each cohort had LVEF>25%; the SRC reviewed preliminary safety data from these patients and decided whether to open cohort enrollment to patients with LVEF<25%.\nIn Cohort A, Compound I 75 mg twice daily (BID) or matching placebo was administered after a 2-hour fast, and food was not allowed for the following 2 hours. In Cohorts B, C and D, patients received Compound I 50, 75 and 100 mg BID, respectively, with food (Table 5).\nPatients were admitted to a clinical research unit for 11 days and underwent 3 consecutive study periods: (1) an initial single-blind placebo run-in period of 2 days (Days 1-2); (2) a randomized (1:3) double-blind treatment period in which patients received 7 days of placebo or Compound I, administered orally twice daily (from Day 3 until Day 9); (3) a follow-up period with patients discharged from the unit on D11, and a final follow-up clinic visit conducted on Day 16. During the 11-day confinement, patients were under continuous supervision.\nDuring the study, multiple evaluations were performed that included: serial TTE assessments (11-14 TTEs per patient on Days 1, 2, 3, 4, 7, 9, 10 and 11); PK sampling (PK sample collected concomitantly with every post-randomization echocardiogram); ECGs (on Days 2, 3, 4, 7, 9, 10, 11 and 16); troponin (collected concomitantly with every post-randomization ECG); and safety laboratory assessments. Confined patients underwent continuous telemetry. Holter monitoring was performed in all patients at baseline (Days 1-2) and at the end of double-blind treatment (Days 7-9). Vital signs were collected daily."}, "[2]": {"test": "Pharmacokinetics in healthy volunteers", "settings": "human, in vivo"}, "[3]": {"test_system": "LV (papillary) skinned muscle fibers", "test": "Myocardial force generation, LV skinned muscle fibers (tension-pCa, stiffness)", "assay_type": "biochemical, Yucatan mini-pig", "settings": "at 3 μM", "procedure": "The ability of Compound I to increase myocardial force generation at a given Ca2+ concentration was evaluated using LA (n=6) and LV (n=6) skinned muscle fibers prepared from three different Yucatan mini-pig hearts. In short, as previously described, 3 hearts were harvested, rinsed and shipped in cold cardioplegia solution (Custodiol® HTK; Essential Pharmaceuticals, LLC, NC, USA). Upon receipt, LV (papillary) and LA muscle fibers were dissected at 4° C. in a high-relaxing solution (100 mM BES, 10 mM EGTA, 6.57 mM MgCl2, 10 mM creatine phosphate, 6.22 mM ATP, 41.89 mM Kprop, 2.5 μM pepstatin, 1 μM leupeptin, 50 μM PMSF, 5 mM NaN3, pH 7.0). Fiber bundles were cut and skinned (in a high-relaxing solution containing 1% Triton X-100), fitted with aluminum foil t-clips, and mounted on a mechanics apparatus (Aurora Scientific Inc., ON, Canada). Sarcomere length was set to 2.0 μm. Steady-state isometric tension and stiffness (via a 3% stretch over 250 ms) were measured at increasing concentrations of Ca^2+ (pCa 8.0 to 4.5, adjusted to maintain 180 mM ionic strength) twice, first in the absence (control, 1% DMSO) and then in the presence of Compound I (3 μM, 1% DMSO). In all cases, tension values were normalized to the control maximum isometric tension (at pCa 4.5). Active and passive stiffness were calculated by measuring the slope of the early (Ca^2+ dependent) and late phases, respectively, of the tension response to the brief 3% stretches. Data are presented as means (SD) in text or as mean±SEM in figures; EC50 values (and 95% CIs) were calculated using a four-parameter-fit model (GraphPad Prism, GraphPad Software Inc., CA, USA)."}, "[4]": {"test_system": "beagle dogs under isoflurane anesthesia, right-atrial burst pacing", "test": "AF inducibility and LA size/function with phenylephrine on board (Example 3)"}, "[5]": {"settings": "plasma concentrations ≥2000 ng/mL, 'up to', p<0.01"}, "[6]": {"settings": "0.3-0.4 mg/kg IV bolus with 0.3/0.4 mg/kg/hr IV infusion, P<0.05"}, "[7]": {"settings": "IV bolus + infusion with PE vs PE alone, FIG. 4"}}, "note": "Marks after values point to notes of the source that are not given here."}
{"smiles": "Cn1cc(S(=O)(=O)[C@@](C)(F)C2CCN(C(=O)Nc3ccon3)CC2)c(C(F)F)n1", "note": "[Compound I, (R)-4-(1-((3-(difluoromethyl)-1-methyl-1H-pyrazol-4-yl)sulfonyl)-1-fluoroethyl)-N-(isoxazol-3-yl)piperidine-1-carboxamide]", "values": [{"measurement": "safety and tolerability of drug dosages and exposures tested", "setting": "[1]; current studies", "result": "safe and are well tolerated"}, {"measurement": "LAminVi, mean change from baseline (placebo-corrected)", "setting": "[1]; plasma concentration 2000-<3500 ng/mL (medium), SE 0.6, p<0.01", "result": "−2.1", "unit": "mL/m^2"}, {"measurement": "LAEF, mean change from baseline (placebo-corrected)", "setting": "[1]; plasma concentration 2000-<3500 ng/mL (n = 26, medium), SE 1.3, p<0.05", "result": 3.3, "unit": "%"}, {"measurement": "LAmaxVi, mean change from baseline (placebo-corrected)", "setting": "[1]; plasma concentration 2000-<3500 ng/mL, SE 0.7", "result": "−1.1", "unit": "mL/m^2"}, {"measurement": "MR jet area/LA area ratio, mean change from baseline (placebo-corrected)", "setting": "[1]; plasma concentration 2000-<3500 ng/mL, SE 1.3", "result": "−0.6", "unit": "%"}, {"measurement": "LAEF, mean change from baseline (placebo-corrected)", "setting": "[1]; plasma concentration <2000 ng/mL (n = 30), LS mean difference, SE 1.2, baseline 41 (8)", "result": 2.1, "unit": "%"}, {"measurement": "LAminVi, mean change from baseline (placebo-corrected)", "setting": "[1]; plasma concentration <2000 ng/mL, SE 0.6, baseline 17 (7), p<0.01", "result": "−1.8** mL/m^2"}, {"measurement": "LAmaxVi, mean change from baseline (placebo-corrected)", "setting": "[1]; plasma concentration <2000 ng/mL, SE 0.6, baseline 28 (9)", "result": "−1.2", "unit": "mL/m^2"}, {"measurement": "MR jet area/LA area ratio, mean change from baseline (placebo-corrected)", "setting": "[1]; plasma concentration <2000 ng/mL, SE 1.2, baseline 8.7 (10.5)", "result": 0.3, "unit": "%"}, {"measurement": "LAFI, mean change from baseline (placebo-corrected)", "setting": "[1]; plasma concentration <2000 ng/mL, SE 1.5, baseline 26 (13)", "result": 2.6}, {"measurement": "LAminVi, mean change from baseline (placebo-corrected)", "setting": "[1]; plasma concentration ≥3500 ng/mL (high), SE 0.7, p<0.01", "result": "−2.4", "unit": "mL/m^2"}, {"measurement": "LAEF, mean change from baseline (placebo-corrected)", "setting": "[1]; plasma concentration ≥3500 ng/mL (n = 13, high), SE 1.6, p<0.05", "result": 3.6, "unit": "%"}, {"measurement": "LAmaxVi, mean change from baseline (placebo-corrected)", "setting": "[1]; plasma concentration ≥3500 ng/mL, SE 0.8", "result": "−1.3", "unit": "mL/m^2"}, {"measurement": "MR jet area/LA area ratio, mean change from baseline (placebo-corrected)", "setting": "[1]; plasma concentration ≥3500 ng/mL, SE 1.6, p<0.05", "result": "−4.2* %"}, {"measurement": "decrease in LA minimal volume index compared with placebo", "setting": "[1]; [5]", "result": "up to −2.4 mL/m2"}, {"measurement": "increase in LA function index compared with placebo", "setting": "[1]; [5]", "result": "up to 6.1"}, {"measurement": "Tmax", "setting": "[2]", "result": "4 to 6", "unit": "h"}, {"measurement": "half-life", "setting": "[2]", "result": "~15", "unit": "h"}, {"measurement": "passive stiffness, ventricular skinned fibers", "setting": "[3]", "result": "without altering passive stiffness"}, {"measurement": "increase in LV tension", "setting": "[3]; pCa 6.0", "result": 43, "unit": "%"}, {"measurement": "maximal force-generation capability, ventricular skinned fibers", "setting": "[3]; data not shown", "result": "without altering"}, {"measurement": "fractional shortening (FS), increase", "setting": "[4]; [6]", "result": "13±3", "unit": "%"}, {"measurement": "left-ventricular stroke volume (SV), increase", "setting": "[4]; [6]", "result": "16±5", "unit": "%"}, {"measurement": "systolic ejection time (SET), change", "setting": "[4]; 0.3-0.4 mg/kg IV bolus with 0.3/0.4 mg/kg/hr IV infusion, prolonged, P<0.05", "result": "10±3", "unit": "%"}, {"measurement": "SBP under Compound I", "setting": "[4]; 0.3-0.4 mg/kg IV bolus with IV infusion, PE on board, systemic pressures preserved", "result": "135.7±6.2", "unit": "mmHg"}, {"measurement": "LV contractility (ΔEF)", "setting": "[4]; Compound I, Example 3 protocol, FIG. 6", "result": "increase LV contractility"}, {"measurement": "atrial emptying fraction (LA EF)", "setting": "[4]; [7]", "result": "increasing the atrial emptying fraction"}, {"measurement": "left-atrial size (LA Volmin)", "setting": "[4]; [7]", "result": "decreased left-atrial size"}, {"measurement": "AF inducibility (e.g., AF duration)", "setting": "[4]; IV bolus + infusion with PE vs PE alone, burst pacing, FIG. 4", "result": "decreasing AF inducibility"}]}
